Patent US20130281399A1, “TREATMENT OF DISEASES BY EPIGENETIC REGULATION” (RVX Therapeutics Inc., priority 2012, published 2013)

These molecules were tested against T1, Brd4 bromodomain 1 (Homo sapiens, UniProt O60885) (assay: Inhibition of binding of tetra-acetylated histone H4 to Brd4 bromodomain 1 (TR-FRET)). Details: His-tagged Brd4 bromodomain 1 200 nM, tetra-acetylated histone H4 peptide 25-50 nM, 2 hours room temperature.
T1 construct: made in house; host or cells: E. coli BL21(DE3)
Experimental: Proteins were cloned and overexpressed with a N-terminal 6×His tag, then purified by nickel affinity followed by size exclusion chromatography. Briefly, E. coli BL21(DE3) cells were transformed with a recombinant expression vector encoding N-terminally Nickel affinity tagged bromodomains from Brd2, Brd3, Brd4. Cell cultures were incubated at 37° C. with shaking to the appropriate density and induced overnight with IPTG. The supernatant of lysed cells was loaded onto Ni-IDA column for purification. Eluted protein was pooled, concentrated and further purified by size exclusion chromatography. Fractions representing monomeric protein were pooled, concentrated, aliquoted, and frozen at −80° C. for use in subsequent experiments.
For inhibition assays, serially diluted test compound was added to these reactions in a 0.2% final concentration of DMSO. Final buffer concentrations were 30 mM HEPES pH 7.4, 30 mM NaCl, 0.3 mM CHAPS, 20 mM phosphate pH 7.0, 320 mM KF, 0.08% BSA). […] The binding inhibitory activity was shown by a decrease in 665 nm fluorescence relative to 620 nm. IC50 values were determined from a dose response curve.
COc1cc(OC)c2c(=O)[nH]c(-c3ccc(N4CCN(C(=O)C(C)C)CC4)cc3)nc2c1 [Example 17, 2-(4-(4-Isobutyrylpiperazin-1-yl)phenyl)-5,7-dimethoxyquinazolin-4(3H)-one] was tested, and the “FRET activity (<50 uM)” value was “Active”.
COc1cc(OC)c2c(=O)[nH]c(-c3ccc(N4CCN(C=O)CC4)cc3)nc2c1 [Example 51, 4-(4-(5,7-Dimethoxy-4-oxo-3,4-dihydroquinazolin-2-yl)phenyl)piperazine-1-carbaldehyde] was tested, and the “FRET activity (<50 uM)” value was “Active”.
With COc1cc(OC)c2c(=O)[nH]c(-c3ccc(N4CCN(C(=O)C5CC5)CC4)cc3)nc2c1 [Example 28, 2-(4-(4-(Cyclopropanecarbonyl)piperazin-1-yl)phenyl)-5,7-dimethoxyquinazolin-4(3H)-one] the “FRET activity (<50 uM)” value was “Active”.
With COc1cc(OC)c2c(=O)[nH]c(-c3ccc(OC4CCN(C(C)=O)CC4)cc3)nc2c1 [Example 64, 2-(4-(1-Acetylpiperidin-4-yloxy)phenyl)-5,7-dimethoxyquinazolin-4(3H)-one] the “FRET activity (<50 uM)” value was “Active”.
In the case of COc1cc(OC)c2c(=O)[nH]c(-c3ccc(N4CCC(N(C(C)=O)C(C)C)CC4)cc3)nc2c1 [Example 40, N-(1-(4-(5,7-dimethoxy-4-oxo-3,4-dihydroquinazolin-2-yl)phenyl)piperidin-4-yl)-N-isopropylacetamide], the “FRET activity (<50 uM)” value is reported as “Inactive”.
For COc1cc(OC)c2c(=O)[nH]c(-c3cc(C)c(OCCN4C(=O)CCC4=O)c(C)c3)nc2c1 [Example 97, 1-(2-(4-(5,7-Dimethoxy-4-oxo-3,4-dihydroquinazolin-2-yl)-2,6-dimethylphenoxy)ethyl)pyrrolidine-2,5-dione], the “FRET activity (<50 uM)” value was “Active”.
For COc1cc(OC)c2c(=O)[nH]c(-c3ccc(N4CCNC(C)C4)cc3)nc2c1 (stereo not shown) [Example 48, 5,7-Dimethoxy-2-(4-(3-methylpiperazin-1-yl)phenyl)quinazolin-4(3H)-one], the “FRET activity (<50 uM)” value was “Active”.
With COc1cc(OC)c2c(=O)[nH]c(-c3ccc(N4CCN(C(=O)CC(F)(F)F)CC4)cc3)nc2c1 [Example 26, 5,7-Dimethoxy-2-(4-(4-(3,3,3-trifluoropropanoyl)piperazin-1-yl)phenyl)quinazolin-4(3H)-one] the “FRET activity (<50 uM)” value was “Active”.
CCN(C(C)=O)C1CCN(c2ccc(-c3nc4cc(OC)cc(OC)c4c(=O)[nH]3)cc2)CC1 [Example 35, N-(1-(4-(5,7-Dimethoxy-4-oxo-3,4-dihydroquinazolin-2-yl)phenyl)piperidin-4-yl)-N-ethylacetamide] was tested, and the “FRET activity (<50 uM)” value was “Active”.
In the case of COc1cc(OC)c2c(=O)[nH]c(-c3ccc(N4CCCN(C)CC4)cc3)nc2c1 [Example 34, 5,7-Dimethoxy-2-(4-(4-methyl-1,4-diazepan-1-yl)phenyl)quinazolin-4(3H)-one], the “FRET activity (<50 uM)” value is reported as “Active”.
For COc1cc(OC)c2c(=O)[nH]c(-c3ccc(N4CCC(NS(C)(=O)=O)CC4)cc3)nc2c1 [Example 14, N-(1-(4-(5,7-Dimethoxy-4-oxo-3,4-dihydroquinazolin-2-yl)phenyl)piperidin-4-yl)methanesulfonamide], the “FRET activity (<50 uM)” value was “Active”.
For COc1cc(OC)c2c(=O)[nH]c(-c3ccc(N4C[C@@H](C)N(C(C)=O)[C@@H](C)C4)cc3)nc2c1 [Example 36, 2-(4-((3R,5S)-4-Acetyl-3,5-dimethylpiperazin-1-yl)phenyl)-5,7-dimethoxyquinazolin-4(3H)-one], the “FRET activity (<50 uM)” value was “Active”.
For COc1cc(OC)c2c(=O)[nH]c(-c3ccc(Nc4ccncc4)cc3)nc2c1 [Example 60, 5,7-Dimethoxy-2-(4-(pyridin-4-ylamino)phenyl)quinazolin-4(3H)-one], the “FRET activity (<50 uM)” value was “Active”.
With COc1cc(OC)c2c(=O)[nH]c(-c3ccc(N4CCN(C(=O)c5cccnc5)CC4)cc3)nc2c1 [Example 22, 5,7-Dimethoxy-2-(4-(4-nicotinoylpiperazin-1-yl)phenyl)quinazolin-4(3H)-one] the “FRET activity (<50 uM)” value was “Active”.
In the case of COc1cc(OC)c2c(=O)[nH]c(-c3ccc(N4CCN(C(=O)c5cc(Cl)sc5Cl)CC4)cc3)nc2c1 [Example 27, 2-(4-(4-(2,5-Dichlorothiophene-3-carbonyl)piperazin-1-yl)phenyl)-5,7-dimethoxyquinazolin-4(3H)-one], the “FRET activity (<50 uM)” value is reported as “Active”.
COc1cc(OC)c2c(=O)[nH]c(-c3ccc(N4CCN(C(=O)c5ccccc5)CC4)cc3)nc2c1 [Example 18, 2-(4-(4-Benzoylpiperazin-1-yl)phenyl)-5,7-dimethoxyquinazolin-4(3H)-one] was tested, and the “FRET activity (<50 uM)” value was “Inactive”.
In the case of COc1cc(OC)c2c(=O)[nH]c(-c3ccc(N4C[C@@H](C)N(C(C)=O)[C@@H](C)C4)cc3)nc2n1 [Example 7, 2-(4-((3R,5S)-4-Acetyl-3,5-dimethylpiperazin-1-yl)phenyl)-5,7-dimethoxypyrido[2,3-d]pyrimidin-4(3H)-one], the “FRET activity (<50 uM)” value is reported as “Active”.
With COc1cc(OC)c2c(=O)[nH]c(-c3ccc(OC4CCN(C(=O)N(C)C)CC4)cc3)nc2c1 [Example 63, 4-(4-(5,7-Dimethoxy-4-oxo-3,4-dihydroquinazolin-2-yl)phenoxy)-N,N-dimethylpiperidine-1-carboxamide] the “FRET activity (<50 uM)” value was “Active”.
For CCCCCC(=O)N1CCN(c2ccc(-c3nc4cc(OC)cc(OC)c4c(=O)[nH]3)cc2)CC1 [Example 16, 2-(4-(4-Hexanoylpiperazin-1-yl)phenyl)-5,7-dimethoxyquinazolin-4(3H)-one], the “FRET activity (<50 uM)” value was “Inactive”.
In the case of COc1cc(OC)c2c(=O)[nH]c(-c3cc(C)c(OCCC4CN(C(C)=O)C4)c(C)c3)nc2c1 [Example 5, 2-(4-(2-(1-acetylazetidin-3-yl)ethoxy)-3,5-dimethylphenyl)-5,7-dimethoxyquinazolin-4(3H)-one], the “FRET activity (<50 uM)” value is reported as “Active”.
COc1cc(OC)c2c(=O)[nH]c(-c3ccc(N4CCN(C(=O)c5cccs5)CC4)cc3)nc2c1 [Example 24, 5,7-Dimethoxy-2-(4-(4-(thiophene-2-carbonyl)piperazin-1-yl)phenyl)quinazolin-4(3H)-one] was tested, and the “FRET activity (<50 uM)” value was “Active”.
For COc1cc(OC)c2c(=O)[nH]c(-c3ccc(N4CCN(C(C)=O)CC4)cc3)nc2c1 [Example 11, 2-(4-(4-Acetylpiperazin-1-yl)phenyl)-5,7-dimethoxyquinazolin-4(3H)-one], the “FRET activity (<50 uM)” value was “Active”.
In the case of COc1cc(OC)c2c(=O)[nH]c(-c3ccc(N4CCN(C(C)=O)C(C)C4)cc3)nc2c1 (stereo not shown) [Example 38, 2-(4-(4-Acetyl-3-methylpiperazin-1-yl)phenyl)-5,7-dimethoxyquinazolin-4(3H)-one], the “FRET activity (<50 uM)” value is reported as “Active”.
For CC(C)N1CCN(c2ccc(-c3nc4cccc(Cl)c4c(=O)[nH]3)cc2)CC1 [Example 41, 5-Chloro-2-(4-(4-isopropylpiperazin-1-yl)phenyl)quinazolin-4(3H)-one], the “FRET activity (<50 uM)” value was “Inactive”.
For Cc1cc(-c2nc3cc(F)cc(N4CCCC4)c3c(=O)[nH]2)cc(C)c1OCCN1CCCC1 [Example 82, 2-(3,5-Dimethyl-4-(2-(pyrrolidin-1-yl)ethoxy)phenyl)-7-fluoro-5-(pyrrolidin-1-yl)quinazolin-4(3H)-one], the “FRET activity (<50 uM)” value was “Inactive”.
COc1cc(OC)c2c(=O)[nH]c(-c3ccc4[nH]c(CCO)cc4c3)nc2c1 [Example 54, 2-(2-(2-Hydroxyethyl)-1H-indol-5-yl)-5,7-dimethoxyquinazolin-4(3H)-one] was tested, and the “FRET activity (<50 uM)” value was “Active”.
With CNC1CCN(c2ccc(-c3nc4cc(OC)cc(OC)c4c(=O)[nH]3)cc2)C1 (stereo not shown) [Example 44, 5,7-Dimethoxy-2-(4-(3-(methylamino)pyrrolidin-1-yl)phenyl)quinazolin-4(3H)-one] the “FRET activity (<50 uM)” value was “Active”.
COc1cc(OC)c2c(=O)[nH]c(-c3cc(C)c(OC[C@@H]4CCC(=O)N4)c(C)c3)nc2c1 [Example 92, (S)-2-(3,5-Dimethyl-4-((5-oxopyrrolidin-2-yl)methoxy)phenyl)-5,7-dimethoxyquinazolin-4(3H)-one] was tested, and the “FRET activity (<50 uM)” value was “Active”.
COc1cc(OC)c2c(=O)[nH]c(-c3ccc(N4CCC(NC(C)=O)CC4)cc3)nc2c1 [Example 13, N-(1-(4-(5,7-Dimethoxy-4-oxo-3,4-dihydroquinazolin-2-yl)phenyl)piperidin-4-yl)acetamide] was tested, and the “FRET activity (<50 uM)” value was “Active”.
In the case of COc1cc(OC)c2c(=O)[nH]c(-c3ccc(CN4CCC(N(C(C)=O)C(C)C)CC4)cc3)nc2c1 [Example 94, N-(1-(4-(5,7-Dimethoxy-4-oxo-3,4-dihydroquinazolin-2-yl)benzyl)piperidin-4-yl)-N-isopropylacetamide], the “FRET activity (<50 uM)” value is reported as “Active”.
With COc1cc(OC)c2c(=O)[nH]c(-c3ccc(N4CCN(C(=O)c5cnn(C)c5Cl)CC4)cc3)nc2c1 [Example 25, 2-(4-(4-(5-Chloro-1-methyl-1H-pyrazole-4-carbonyl)piperazin-1-yl)phenyl)-5,7-dimethoxyquinazolin-4(3H)-one] the “FRET activity (<50 uM)” value was “Inactive”.
With COc1cc(OC)c2c(=O)[nH]c(-c3ccc4[nH]c(CCN5CCCC5)cc4c3)nc2c1 [Example 57, 5,7-Dimethoxy-2-(2-(2-(pyrrolidin-1-yl)ethyl)-1H-indol-5-yl)quinazolin-4(3H)-one] the “FRET activity (<50 uM)” value was “Active”.
In the case of COc1cc(OC)c2c(=O)[nH]c(-c3ccc(C4CCNCC4)cc3)nc2c1 [Example 43, 5,7-Dimethoxy-2-(4-(piperidin-4-yl)phenyl)quinazolin-4(3H)-one], the “FRET activity (<50 uM)” value is reported as “Active”.
For COc1cccc(-c2nc3cc(OC)cc(OC)c3c(=O)[nH]2)c1 [Example 116, 5,7-Dimethoxy-2-(3-methoxyphenyl)quinazolin-4(3H)-one], the “FRET activity (<50 uM)” value was “Inactive”.
